Results published in patent US20150183890A1, “Methods for Formation of Cyclodextrin-Ursolic Acid Inclusion Complex” (Campbell Industries, priority 2013, published 2015).

Assay: Aqueous solubility of cyclodextrin-ursolic acid inclusion complex versus ursolic acid alone
Assay type: physicochemical
Conditions: aqueous solutions; CDUA compared with UA alone

C[C@H]1[C@H](C)CC[C@]2(C(=O)O)CC[C@]3(C)C(=CC[C@@H]4[C@@]5(C)CC[C@H](O)C(C)(C)[C@@H]5CC[C@]43C)[C@H]12 [UA, 3-β-hydroxy-urs-12-en-28-oic acid]
aqueous solubility (in words): largely insoluble
